According to ChEMBL document CHEMBL1201862, “PubChem BioAssay data set” (2004):
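48-hour exposure; five concentrations; linearly interpolated endpoints. Abbreviation: GI50, concentration required for 50% inhibition of growth.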 Calls of active or inactive are those of the source. No stated cut-off is given here; in the data, active = GI50 up to about 1.1 µM and inactive = higher.

How the values were obtained:
Assay in all cases: DTP human tumour cell line panel, 48 h
NCI-H23 = system: NCI-H23
HOP-92 = system: HOP-92
SK-MEL-28 = system: SK-MEL-28
TK-10 = system: TK-10
M19-MEL = system: M19-MEL
UACC-257 = system: UACC-257
UO-31 = system: UO-31
SF-268 = system: SF-268
SF-539 = system: SF-539
SNB-19 = system: SNB-19
DMS-273 = system: DMS-273
K562 = system: K562
NCI-H226 = system: NCI-H226
HCC 2998 = system: HCC 2998
HL-60 = system: HL-60
SN12C = system: SN12C
SNB-75 = system: SNB-75
SK-MEL-2 = system: SK-MEL-2
LOX IMVI = system: LOX IMVI
KM-20L2 = system: KM-20L2
OVCAR-8 = system: OVCAR-8
OVCAR-5 = system: OVCAR-5
HOP-62 = system: HOP-62
SW-620 = system: SW-620
CAKI-1 = system: CAKI-1
IGROV-1 = system: IGROV-1
MOLT-4 = system: MOLT-4
UACC-62 = system: UACC-62
ACHN = system: ACHN
Malme-3M = system: Malme-3M
LXFL 529 = system: LXFL 529
RPMI-8226 = system: RPMI-8226
U-251 = system: U-251
KM12 = system: KM12
OVCAR-3 = system: OVCAR-3
SK-MEL-5 = system: SK-MEL-5
CCRF-CEM = system: CCRF-CEM
A498 = system: A498
DLD-1 = system: DLD-1
EKVX = system: EKVX
A549 = system: A549
NCI-H522 = system: NCI-H522
OVCAR-4 = system: OVCAR-4
DMS-114 = system: DMS-114
HCT-116 = system: HCT-116
786-0 = system: 786-0
HCT-15 = system: HCT-15
M14 = system: M14
COLO 205 = system: COLO 205
NCI-H460 = system: NCI-H460
HOP-18 = system: HOP-18
RXF 393 = system: RXF 393
HT-29 = system: HT-29
SF-295 = system: SF-295
SR = system: SR
SK-OV-3 = system: SK-OV-3
SNB-78 = system: SNB-78

Question: `CC(C)OP(=O)(OC(C)C)/C(=N/Nc1ccccc1[N+](=O)[O-])NCCN/C(=N\Nc1ccccc1[N+](=O)[O-])P(=O)(OC(C)C)OC(C)C` was tested. Which GI50 (NCI-H23) did it give?
Answer: 14.5 µM (inactive)

Question: What about the GI50 (HOP-92) of the same molecule?
Answer: 32 µM (inactive)

Question: And the GI50 (SK-MEL-28)?
Answer: 39.4 µM (inactive)

Question: What about the GI50 (TK-10) of the same molecule?
Answer: 39.1 µM (inactive)

Question: What about the GI50 (M19-MEL) of the same molecule?
Answer: 34.9 µM (inactive)

Question: What about the GI50 (UACC-257) of the same molecule?
Answer: 29.2 µM (inactive)

Question: And the GI50 (UO-31)?
Answer: 29.3 µM (inactive)

Question: And the GI50 (SF-268)?
Answer: 67.1 µM (inactive)

Question: And the GI50 (SF-539)?
Answer: 38.1 µM (inactive)

Question: What about the GI50 (SNB-19) of the same molecule?
Answer: 38 µM (inactive)

Question: What about the GI50 (DMS-273) of the same molecule?
Answer: 35.2 µM (inactive)

Question: What about the GI50 (K562) of the same molecule?
Answer: 35.3 µM (inactive)

Question: What about the GI50 (NCI-H226) of the same molecule?
Answer: 24.4 µM (inactive)

Question: And the GI50 (HCC 2998)?
Answer: 39.4 µM (inactive)

Question: What about the GI50 (HL-60) of the same molecule?
Answer: 23.7 µM (inactive)

Question: What about the GI50 (SN12C) of the same molecule?
Answer: 43.7 µM (inactive)

Question: And the GI50 (SNB-75)?
Answer: 89.3 µM (inactive)

Question: What about the GI50 (SK-MEL-2) of the same molecule?
Answer: 19.6 µM (inactive)

Question: And the GI50 (LOX IMVI)?
Answer: 30.2 µM (inactive)

Question: What about the GI50 (KM-20L2) of the same molecule?
Answer: 24.9 µM (inactive)

Question: What about the GI50 (OVCAR-8) of the same molecule?
Answer: 39.5 µM (inactive)

Question: What about the GI50 (OVCAR-5) of the same molecule?
Answer: 24.2 µM (inactive)

Question: And the GI50 (HOP-62)?
Answer: 52.8 µM (inactive)

Question: What about the GI50 (SW-620) of the same molecule?
Answer: 35.5 µM (inactive)

Question: And the GI50 (CAKI-1)?
Answer: 25.6 µM (inactive)

Question: What about the GI50 (IGROV-1) of the same molecule?
Answer: 27.9 µM (inactive)

Question: And the GI50 (MOLT-4)?
Answer: 43.2 µM (inactive)

Question: And the GI50 (UACC-62)?
Answer: 19.2 µM (inactive)

Question: And the GI50 (ACHN)?
Answer: 30.1 µM (inactive)

Question: And the GI50 (Malme-3M)?
Answer: 23.1 µM (inactive)

Question: What about the GI50 (LXFL 529) of the same molecule?
Answer: 19.5 µM (inactive)

Question: And the GI50 (RPMI-8226)?
Answer: 28.2 µM (inactive)

Question: And the GI50 (U-251)?
Answer: 29.6 µM (inactive)

Question: What about the GI50 (KM12) of the same molecule?
Answer: 40.3 µM (inactive)

Question: What about the GI50 (OVCAR-3) of the same molecule?
Answer: 42.7 µM (inactive)

Question: And the GI50 (SK-MEL-5)?
Answer: > 10 µM (inactive)

Question: What about the GI50 (CCRF-CEM) of the same molecule?
Answer: 22.2 µM (inactive)

Question: And the GI50 (A498)?
Answer: 49.5 µM (inactive)

Question: What about the GI50 (DLD-1) of the same molecule?
Answer: 34 µM (inactive)

Question: And the GI50 (EKVX)?
Answer: 28.9 µM (inactive)

Question: What about the GI50 (A549) of the same molecule?
Answer: 29.4 µM (inactive)

Question: And the GI50 (NCI-H522)?
Answer: 31.8 µM (inactive)

Question: What about the GI50 (OVCAR-4) of the same molecule?
Answer: 48.1 µM (inactive)

Question: What about the GI50 (DMS-114) of the same molecule?
Answer: 31.7 µM (inactive)

Question: And the GI50 (HCT-116)?
Answer: 27.9 µM (inactive)

Question: And the GI50 (786-0)?
Answer: 33 µM (inactive)

Question: What about the GI50 (HCT-15) of the same molecule?
Answer: 30.3 µM

Question: What about the GI50 (M14) of the same molecule?
Answer: 36.1 µM (inactive)

Question: And the GI50 (COLO 205)?
Answer: 25.2 µM (inactive)

Question: What about the GI50 (NCI-H460) of the same molecule?
Answer: > 10 µM (inactive)

Question: What does the source list for `COc1ccc(C2S/C(=C\c3cccc(OC)c3)C(=O)N2NC(=O)Cc2ccccc2)cc1` (stereo unspecified)?
Answer: GI50 (NCI-H23): > 100 µM (inactive); GI50 (HOP-92): > 100 µM (inactive); GI50 (SK-MEL-28): > 100 µM (inactive); GI50 (TK-10): > 100 µM (inactive); GI50 (M19-MEL): > 100 µM (inactive); GI50 (UACC-257): > 100 µM (inactive); GI50 (UO-31): > 100 µM (inactive); GI50 (SF-268): > 100 µM (inactive); GI50 (SF-539): > 100 µM (inactive); GI50 (DMS-273): > 100 µM (inactive); GI50 (K562): > 100 µM (inactive); GI50 (HOP-18): > 100 µM (inactive); GI50 (RXF 393): > 100 µM (inactive); GI50 (NCI-H226): 94.8 µM (inactive); GI50 (HL-60): > 100 µM (inactive); GI50 (SN12C): > 100 µM (inactive); GI50 (SNB-75): > 100 µM (inactive); GI50 (SK-MEL-2): > 100 µM (inactive); GI50 (LOX IMVI): > 100 µM (inactive); GI50 (HT-29): > 100 µM (inactive); GI50 (OVCAR-8): > 100 µM (inactive); GI50 (OVCAR-5): > 100 µM (inactive); GI50 (HOP-62): > 100 µM (inactive); GI50 (SW-620): > 100 µM (inactive); GI50 (CAKI-1): > 100 µM (inactive); GI50 (IGROV-1): > 100 µM (inactive); GI50 (MOLT-4): > 100 µM (inactive); GI50 (UACC-62): > 100 µM (inactive); GI50 (ACHN): > 100 µM (inactive); GI50 (Malme-3M): > 100 µM (inactive); GI50 (LXFL 529): > 100 µM (inactive); GI50 (SF-295): > 100 µM (inactive); GI50 (RPMI-8226): > 100 µM (inactive); GI50 (U-251): > 100 µM (inactive); GI50 (KM12): > 100 µM (inactive); GI50 (SK-MEL-5): > 100 µM (inactive); GI50 (CCRF-CEM): > 100 µM (inactive); GI50 (A498): > 100 µM (inactive); GI50 (DLD-1): > 100 µM (inactive); GI50 (SR): > 100 µM (inactive); GI50 (A549): > 100 µM (inactive); GI50 (NCI-H522): > 100 µM (inactive); GI50 (OVCAR-4): > 100 µM (inactive); GI50 (HCT-116): > 100 µM (inactive); GI50 (786-0): > 100 µM (inactive); GI50 (SK-OV-3): > 100 µM (inactive); GI50 (HCT-15): > 100 µM; GI50 (M14): > 100 µM (inactive); GI50 (COLO 205): > 100 µM (inactive); GI50 (NCI-H460): > 100 µM (inactive)

Question: What does the source list for `O=c1c2ccccc2c(=O)c2c1cc(Cl)c1[nH]c3c([nH]c12)c(Cl)cc1c(=O)c2ccccc2c(=O)c13`?
Answer: GI50 (NCI-H23): > 100 µM (inactive); GI50 (SK-MEL-28): > 100 µM (inactive); GI50 (TK-10): > 100 µM (inactive); GI50 (M19-MEL): > 100 µM (inactive); GI50 (UACC-257): > 100 µM (inactive); GI50 (UO-31): > 100 µM (inactive); GI50 (SF-268): > 100 µM (inactive); GI50 (SF-539): > 100 µM (inactive); GI50 (SNB-19): > 100 µM (inactive); GI50 (DMS-273): > 100 µM (inactive); GI50 (K562): > 100 µM (inactive); GI50 (RXF 393): > 100 µM (inactive); GI50 (NCI-H226): > 100 µM (inactive); GI50 (HCC 2998): > 100 µM (inactive); GI50 (HL-60): > 100 µM (inactive); GI50 (SN12C): > 100 µM (inactive); GI50 (SNB-75): > 100 µM (inactive); GI50 (SK-MEL-2): > 100 µM (inactive); GI50 (KM-20L2): > 100 µM (inactive); GI50 (HT-29): > 100 µM (inactive); GI50 (OVCAR-8): > 100 µM (inactive); GI50 (OVCAR-5): > 100 µM (inactive); GI50 (HOP-62): > 100 µM (inactive); GI50 (SW-620): > 100 µM (inactive); GI50 (CAKI-1): > 100 µM (inactive); GI50 (IGROV-1): > 100 µM (inactive); GI50 (MOLT-4): > 100 µM (inactive); GI50 (UACC-62): > 100 µM (inactive); GI50 (ACHN): > 100 µM (inactive); GI50 (Malme-3M): > 100 µM (inactive); GI50 (SF-295): > 100 µM (inactive); GI50 (SNB-78): > 100 µM (inactive); GI50 (RPMI-8226): > 100 µM (inactive); GI50 (U-251): > 100 µM (inactive); GI50 (KM12): > 100 µM (inactive); GI50 (OVCAR-3): > 100 µM (inactive); GI50 (CCRF-CEM): > 100 µM (inactive); GI50 (A498): > 100 µM (inactive); GI50 (DLD-1): > 100 µM (inactive); GI50 (EKVX): > 100 µM (inactive); GI50 (A549): > 100 µM (inactive); GI50 (NCI-H522): > 100 µM (inactive); GI50 (OVCAR-4): > 100 µM (inactive); GI50 (DMS-114): > 100 µM (inactive); GI50 (HCT-116): > 100 µM (inactive); GI50 (786-0): > 100 µM (inactive); GI50 (SK-OV-3): > 100 µM (inactive); GI50 (HCT-15): > 100 µM; GI50 (M14): > 100 µM (inactive); GI50 (COLO 205): > 100 µM (inactive); GI50 (NCI-H460): > 100 µM (inactive)
